In brackets after ≈: the same amount, converted by molar mass. Read-outs that look alike come from different tables or passages of the source.
Assays:
[1] = tested on: Enterobacter aerogenes 8193; experiment: MIC, solid dilution method; type: cell-based; conditions: Klebsiella aerogenes
Method: CRE Enterobacter aerogenes 8193, a total of 1 strain;
(§1) The above-mentioned glycerol-preserved strains were taken out from the −80° C. refrigerator, streaked and inoculated on MHA plates, labeled, and cultured overnight in a 37° C. incubator.
(§2) The inoculum was prepared directly from bacterial suspension, and several recovered colonies were picked and directly prepared into a bacterial suspension with a turbidity of No. 0.5 McFarland units in normal saline, and a 10-fold dilution was made during inoculation.
(§3) 6 bottles of MHA culture medium 500 mL/bottle were prepared, and the pH was adjusted to 7.2-7.4, sterilized at 121° C. for 15 min, and the medium was placed in a 55° C. water bath to keep warm.
(§4) Sterile blank petri dishes were taken, and marked with each FL drug/concentration according to 2-fold dilution, and 10 concentrations of each drug starting from 8 μg/mL were tested.
(§5) […]; 20 mL was aspirated and added to a petri dish consistent with the mark, and then 20 mL of MHA culture medium was added to the rest of the drug-containing culture medium, mixed evenly, that is, the 2-fold diluted drug-containing culture medium; 20 mL was aspirated and added to the petri dish consistent with the mark, and then diluted to the 10th concentration and the […] respectively by repeating the above-mentioned steps, and then poured into the petri dish.
(§6) 4 bacterial control petri dishes without drug were prepared at the same time as a control.
(§7) The positioning needle and the inoculation needle were installed according to the order of placement of the colony on the inoculation plate. After inoculation, a bacterial solution circle was formed on the petri dish. After the bacterial solution was absorbed by the agar, the petri dish was placed in an incubator at 37° C. for overnight incubation (16-20 hours), and then taken out.
(§8) The minimum inhibitory concentrations of the compounds against the CRE and CSE strains were determined by the solid dilution method, and the results are shown in Tables 3 and 4.

E. ae 14186 = experiment: MIC, solid dilution method; type: cell-based, Enterobacter aerogenes; conditions: Klebsiella aerogenes, 14186
Method: as §1, §2, §3, §4, §5, §6, §7, §8

[2] = tested on: Enterobacter cloacae 11090; experiment: MIC, solid dilution method; type: cell-based; conditions: 11090
Method: as §1, §2, §4, §6, §7

[3] = tested on: Enterobacter cloacae 11699; experiment: MIC, solid dilution method; type: cell-based; conditions: 11699
Method: as §1, §2, §4, §6, §7

[4] = tested on: Enterobacter cloacae 14653; experiment: MIC, solid dilution method; type: cell-based; conditions: 14653
Method: as §1, §2, §4, §6, §7

E. coli 11256 = experiment: MIC, solid dilution method; type: cell-based; conditions: Escherichia coli
Method: as §1, §2, §3, §4, §5, §6, §7, §8

Escherichia coli 11119 = experiment: MIC, solid dilution method; type: cell-based; conditions: 11119
Method: as §1, §2, §3, §4, §5, §6, §7, §8

Escherichia coli 13897 = experiment: MIC, solid dilution method; type: cell-based
Method: as §1, §2, §3, §4, §5, §6, §7, §8

Escherichia coli 14828 = experiment: MIC, solid dilution method; type: cell-based; conditions: 14828
Method: as §1, §2, §3, §4, §5, §6, §7, §8

Klebsiella oxytoca 12391 = experiment: MIC, solid dilution method; type: cell-based
Method: as §1, §2, §3, §4, §5, §6, §7, §8

Klebsiella oxytoca 14151 = experiment: MIC, solid dilution method; type: cell-based; conditions: 14151
Method: as §1, §2, §3, §4, §5, §6, §7, §8

Klebsiella oxytoca 14153 = experiment: MIC, solid dilution method; type: cell-based; conditions: 14153
Method: as §1, §2, §3, §4, §5, §6, §7, §8

Klebsiella oxytoca 6777 = experiment: MIC, solid dilution method; type: cell-based; conditions: 6777
Method: as §1, §2, §3, §4, §5, §6, §7, §8

[5] = tested on: Escherichia coli ATCC25922; experiment: MIC, solid dilution method; type: cell-based
Method: (§9) (1) Standard strains: Escherichia coli BAA-2452, Escherichia coli ATCC25922, Klebsiella pneumoniae BAA-1705; all purchased from ATCC.
as §1, §2, §3, §4, §5, §6, §7, §8

[6] = tested on: Escherichia coli BAA-2452; experiment: MIC, solid dilution method; type: cell-based
Method: as §9, §1, §2, §3, §4, §5, §6, §7, §8

[7] = tested on: Klebsiella pneumoniae BAA-1705; experiment: MIC, solid dilution method; type: cell-based; conditions: BAA1705
Method: as §9, §1, §2, §3, §4, §5, §6, §7, §8

[8] = tested on: Klebsiella pneumoniae 11544; experiment: MIC, solid dilution method; type: cell-based; conditions: 11544
Method: (§10) (2) Clinical isolated strains: CRE Klebsiella pneumoniae 5846, 11544, 12559, 13249 and CSE Klebsiella pneumoniae 8733, a total of 5 strains;
as §1, §2, §3, §4, §5, §6, §7, §8

[9] = tested on: Klebsiella pneumoniae 12559; experiment: MIC, solid dilution method; type: cell-based
Method: as §10, §1, §2, §3, §4, §5, §6, §7, §8

[10] = tested on: Klebsiella pneumoniae 13249; experiment: MIC, solid dilution method; type: cell-based; conditions: 13249
Method: as §10, §1, §2, §3, §4, §5, §6, §7, §8

[11] = tested on: Klebsiella pneumoniae 5846; experiment: MIC, solid dilution method; type: cell-based; conditions: 5846
Method: as §10, §1, §2, §3, §4, §5, §6, §7, §8

[12] = tested on: Klebsiella pneumoniae 8733; experiment: MIC, solid dilution method; type: cell-based
Method: as §10, §1, §2, §3, §4, §5, §6, §7, §8

[13] = tested on: Citrobacter freundii 7646; experiment: MIC, solid dilution method; type: cell-based
Method: (§11) CRE Citrobacter freundii 9434, 9484 and CSE Citrobacter freundii 7646, a total of 3 strains;
as §1, §2, §3, §4, §5, §6, §7, §8

[14] = tested on: Citrobacter freundii 9434; experiment: MIC, solid dilution method; type: cell-based; conditions: 9434
Method: as §11, §1, §2, §3, §4, §5, §6, §7, §8

[15] = tested on: Citrobacter freundii 9484; experiment: MIC, solid dilution method; type: cell-based
Method: as §11, §1, §2, §3, §4, §5, §6, §7, §8

[16] = tested on: Acinetobacter baumannii 6383; experiment: MIC, solid dilution method; type: cell-based; conditions: 6383
Method: (§12) CRE Acinetobacter baumannii 8476, 6383, a total of 2 strains; CRE Serratia marcescens 14541, a total of 1 strain; all collected in the Department of Infectious Diseases, West China Hospital, Chengdu, Sichuan Province, and kept in our laboratory.
as §1, §2, §3, §4, §5, §6, §7, §8

[17] = tested on: Acinetobacter baumannii 8476; experiment: MIC, solid dilution method; type: cell-based
Method: as §12, §1, §2, §3, §4, §5, §6, §7, §8

[18] = tested on: Serratia marcescens 14541; experiment: MIC, solid dilution method; type: cell-based; conditions: 14541
Method: as §12, §1, §2, §3, §4, §5, §6, §7, §8

16 clinical CRE strains = experiment: MIC50, MIC90 and MIC range against 16 clinical CRE strains; type: cell-based
Method: as §1, §2, §3, §4, §5, §6, §7, §8

CC1(C)[C@H](NC(=O)/C(=N\O[C@@H](COc2ccc3c(c2)CN(C(=N)N(CCN)CCN)C3)C(=O)O)c2csc(N)n2)C(=O)N1OS(=O)(=O)O [Compound 45]
MIC [1]; 8193: 4 µg/mL (≈ 5.61 µM)
MIC (E. ae 14186): 2 µg/mL (≈ 2.81 µM)
MIC [2]: 4 µg/mL (≈ 5.61 µM)
MIC [3]: 0.25 µg/mL (≈ 0.351 µM)
MIC [4]: 2 µg/mL (≈ 2.81 µM)
MIC (E. coli 11256; 11256): 0.25 µg/mL (≈ 0.351 µM)
MIC (Escherichia coli 11119): 8 µg/mL (≈ 11.2 µM)
MIC (Escherichia coli 13897; 13897): 0.5 µg/mL (≈ 0.701 µM)
MIC (Escherichia coli 14828): 2 µg/mL (≈ 2.81 µM)
MIC (Klebsiella oxytoca 12391; 12391): 1 µg/mL (≈ 1.4 µM)
MIC (Klebsiella oxytoca 14151): 2 µg/mL (≈ 2.81 µM)
MIC (Klebsiella oxytoca 14153): 2 µg/mL (≈ 2.81 µM)
MIC (Klebsiella oxytoca 6777): 2 µg/mL (≈ 2.81 µM)
MIC ([5]; ATCC25922): 0.125 µg/mL (≈ 0.175 µM)
MIC ([6]; BAA2452): 1 µg/mL (≈ 1.4 µM)
MIC [7]: 2 µg/mL (≈ 2.81 µM)
MIC [8]: > 8 µg/mL
MIC [9]; 12559: 0.5 µg/mL (≈ 0.701 µM)
MIC [10]: > 8 µg/mL
MIC [11]: 1 µg/mL (≈ 1.4 µM)
MIC [12]; 8733: 0.5 µg/mL (≈ 0.701 µM)
MIC [13]; 7646: 1 µg/mL (≈ 1.4 µM)
MIC [14]: 2 µg/mL (≈ 2.81 µM)
MIC [15]; 9484: 0.25 µg/mL (≈ 0.351 µM)
MIC [16]: > 8 µg/mL
MIC [17]; 8476: > 8 µg/mL
MIC [18]: > 8 µg/mL
MIC50 (16 clinical CRE strains): 4 µg/mL (≈ 5.61 µM)
MIC90 (16 clinical CRE strains): > 8 µg/mL

C[C@H]1[C@H](NC(=O)/C(=N\OC(C)(C)C(=O)O)c2csc(N)n2)C(=O)N1S(=O)(=O)O [Aztreonam, aztreonam, reference compound]
MIC ([1]; E. ae 8193, CRE clinical isolate, MHA agar, 37° C., 16-20 hours, read-out: MIC): 32 µg/mL (≈ 73.5 µM)
MIC (E. ae 14186): > 128 µg/mL
MIC (E. coli 11256; E. coli 11256, MHA agar, 37° C., 16-20 hours, read-out: MIC): < 0.25 µg/mL
MIC (Escherichia coli 11119): > 128 µg/mL
MIC (Escherichia coli 13897; E. coli 13897, CRE clinical isolate, MHA agar, 37° C., 16-20 hours, read-out: MIC): 64 µg/mL (≈ 147 µM)
MIC (Escherichia coli 14828): > 128 µg/mL
MIC (Klebsiella oxytoca 12391; K. ox 12391, CRE clinical isolate, MHA agar, 37° C., 16-20 hours, read-out: MIC): 32 µg/mL (≈ 73.5 µM)
MIC (Klebsiella oxytoca 14151): > 128 µg/mL
MIC (Klebsiella oxytoca 14153): > 128 µg/mL
MIC (Klebsiella oxytoca 6777): 128 µg/mL (≈ 294 µM)
MIC ([5]; E. coli ATCC25922, standard strain, MHA agar, 37° C., 16-20 hours, read-out: MIC): < 0.25 µg/mL
MIC ([6]; BAA2452, E. coli BAA-2452, standard strain, MHA agar, 37° C., 16-20 hours, read-out: MIC): 8 µg/mL (≈ 18.4 µM)
MIC [7]: > 128 µg/mL
MIC [8]: > 128 µg/mL
MIC ([9]; K.p 12559, CRE clinical isolate, MHA agar, 37° C., 16-20 hours, read-out: MIC): 4 µg/mL (≈ 9.19 µM)
MIC [10]: > 128 µg/mL
MIC [11]: 128 µg/mL (≈ 294 µM)
MIC ([12]; K.p 8733, CSE clinical isolate, MHA agar, 37° C., 16-20 hours, read-out: MIC): 8 µg/mL (≈ 18.4 µM)
MIC ([13]; C.f 7646, CSE clinical isolate, MHA agar, 37° C., 16-20 hours, read-out: MIC): 16 µg/mL (≈ 36.7 µM)
MIC [14]: > 128 µg/mL
MIC ([15]; C.f 9484, CRE clinical isolate, MHA agar, 37° C., 16-20 hours, read-out: MIC): 1 µg/mL (≈ 2.3 µM)
MIC [16]: 128 µg/mL (≈ 294 µM)
MIC ([17]; A.B 8476, CRE clinical isolate, MHA agar, 37° C., 16-20 hours, read-out: MIC): 64 µg/mL (≈ 147 µM)
MIC [18]: > 128 µg/mL

Source: patent publication US12491180B2, “Application of compound in treating pneumonia” (SHENZHEN OPTIMUM BIOLOGICAL TECHNOLOGY CO., LTD., priority 2019, dated 2025)
